According to US7566733B2, “Benzimidazole derivatives useful as selective androgen receptor modulators (sarms)” (priority 2004, dated 2009):

Tested on: castrated male Sprague Dawley rats
Assay: Ventral Prostate and Seminal Vesicle Weight In Vivo Assay; further: key: active: the non weight adjusted prostate weight was ≦40 mg or the % Inhibition prostate weight, body weight adjusted was ≧40%@2 mg/day dosage; inactive: did not meet the specified criteria defined above
Conditions: inhibition of testosterone-enhanced prostate weight; immature castrated rats, once daily for five days, usually orally 40 mg/kg, with testosterone propionate 2 mg/kg s.c.
Experimental: Ventral Prostate and Seminal Vesicle Weight In Vivo Assay; further: key: active: the non weight adjusted prostate weight was ≦40 mg or the % Inhibition prostate weight, body weight adjusted was ≧40%@2 mg/day dosage; inactive: did not meet the specified criteria defined above
Immature (approximately 50 g) castrated male Sprague Dawley rats (Charles River) were treated once daily for five days with test compound (usually given orally at 40 mg/kg in a volume of 0.3 mL, in 30% cyclodextrin or 0.5% methylcellulose vehicle) and with testosterone propionate (given subcutaneously by injection at the nape of the neck at 2 mg/kg, in a volume of 0.1 mL in sesame oil). On the sixth day, the rats were euthanized by asphyxiation in carbon dioxide. Ventral prosatates and seminal vesicles were removed and their wet weights determined. Test compound activity was determined as the percent inhibition of testosterone-enhanced tissue weights, with a vehicle-treated control group set to zero percent and a testosterone alone-treated control group set to 100%.
Representative compounds of the present invention were tested according to the procedure described, with results as listed in Table 7 below. A test compound is listed as “active” if the non weight adjusted prostate weight was ≦40 mg or the % Inhibition prostate weight, body weight adjusted was ≧40%@2 mg/day dosage. ID50's, if determined, of ≦15 mg/day also indicated an “active” compound.

Row | SMILES | Activity
1 | OC(c1nc2cc(Cl)c(Cl)cc2[nH]1)C(F)(F)F (racemic) [Compound 59, 1-(5,6-DiChloro-1H-benzoimidazol-2-yl-)2,2,2-trifluoro-ethanol] | active
2 | ON=C(c1nc2cc(Cl)c(Cl)cc2[nH]1)C(F)(F)F (racemic) [Compound 141, 1-(5,6-Dichloro-1H-benzoimidazol-2-yl)-2,2,2-trifluoro-ethanone Oxime] | active
3 | CC(O)(Cc1cccc(F)c1)c1nc2cc(Cl)c(Cl)cc2[nH]1 (stereo not shown) [Compound 3] | inactive
4 | CC(O)(CO)c1nc2cc(Cl)c(Cl)cc2[nH]1 (stereo not shown) [Compound 4] | active
5 | Cn1c(C(C)(O)CC#N)nc2cc(Cl)c(Cl)cc21 (stereo not shown) [Compound 8] | active
6 | Cn1c(C(C)(O)C(F)(F)F)nc2cc(Cl)c(Cl)cc21 (stereo not shown) [Compound 9] | active
7 | CCOCC(C)(O)c1nc2cc(Cl)c(Cl)cc2n1C (stereo not shown) [Compound 10] | inactive
8 | CCn1c(C(C)(O)C(F)(F)F)nc2cc(Cl)c(Cl)cc21 (stereo not shown) [Compound 13] | active
9 | CCCn1c(C(C)(O)C(F)(F)F)nc2cc(Cl)c(Cl)cc21 (stereo not shown) [Compound 14] | active
10 | CCCCn1c(C(C)(O)C(F)(F)F)nc2cc(Cl)c(Cl)cc21 (stereo not shown) [Compound 15] | active
11 | CCn1c(C(C)(O)CC#N)nc2cc(Cl)c(Cl)cc21 (stereo not shown) [Compound 16] | active
12 | CCn1c(C(C)(O)COC)nc2cc(Cl)c(Cl)cc21 (stereo not shown) [Compound 17] | inactive
13 | Cn1c(C(C)(O)CCl)nc2cc(Cl)c(Cl)cc21 (stereo not shown) [Compound 18, 1-Chloro-2-(5,6-dichloro-1-methyl-1H-benzoimidazol-2-yl)-propan-2-ol] | active
14 | CC(O)(c1nc2cc(Cl)c(Cl)cc2[nH]1)C(F)(F)F (stereo not shown) [Compound 20] | inactive
15 | CCSCC(C)(O)c1nc2cc(Cl)c(Cl)cc2n1C (stereo not shown) [Compound 25, 2-(5,6-Dichloro-1-methyl-1H-benzoimidazol-2-yl)-1-ethylsulfanyl-propan-2-ol] | active
16 | CC(O)(Cc1nc2cc(Cl)c(Cl)cc2[nH]1)C(F)(F)F (stereo not shown) [Compound 27, 3-(5,6-Dichloro-2-1H-benzoimidazol-2-yl)-1,1,1-trifluoro-2-methyl-propan-2-ol] | active
17 | COC(C)(CC#N)c1nc2cc(Cl)c(Cl)cc2n1C (stereo not shown) [Compound 28] | active
18 | CCSCC(C)(O)c1nc2cc(Cl)c(Cl)cc2n1CC (stereo not shown) [Compound 31, 2-(5,6-Dichloro-1-ethyl-1H-benzoimidazol-2-yl)-1-ethylsulfanyl-propan-2-ol] | active
19 | Cn1c(CC(C)(O)C(F)(F)F)nc2cc(Cl)c(Cl)cc21 (stereo not shown) [Compound 33] | active
20 | CCn1c(CC(C)(O)C(F)(F)F)nc2cc(Cl)c(Cl)cc21 (stereo not shown) [Compound 37] | active
21 | FC(F)(F)Cc1nc2cc(Cl)c(Cl)cc2[nH]1 [Compound 41, 5,6-Dichloro-2-(2,2,2-trifluoro-ethyl)-1H-benzoimidazole] | active
22 | CCn1c(C(C)(O)CSCC(F)(F)F)nc2cc(Cl)c(Cl)cc21 (stereo not shown) [Compound 44, 2-(5,6-Dichloro-1-ethyl-1H-benzoimidazol-2-yl)-1-(2,2,2-trifluoro-ethylsulfanyl)-propan-2-ol] | inactive
23 | Cn1c(C(C)(O)CS(=O)(=O)Cc2ccccc2)nc2cc(Cl)c(Cl)cc21 (stereo not shown) [Compound 45, 2-(5,6-Dichloro-1-methyl-1H-benzoimidazol-2-yl)-1-phenylmethanesulfonyl-propan-2-ol] | inactive
24 | CCn1c(C(C)(O)CS(=O)(=O)CC)nc2cc(Cl)c(Cl)cc21 (stereo not shown) [Compound 48, 2-(5,6-Dichloro-1-ethyl-1H-benzoimidazol-2-yl)-1-ethanesulfonyl-propan-2-ol] | active
25 | CCn1c(C(C)(O)CS(=O)(=O)CC(F)(F)F)nc2cc(Cl)c(Cl)cc21 (stereo not shown) [Compound 49, 2-(5,6-Dichloro-1-ethyl-1H-benzoimidazol-2-yl)-1-(2,2,2-trifluoro-ethanesulfonyl)-propan-2-ol] | inactive
